According to patent US20210380623A1, “PRODRUG GALACTOSIDE INHIBITOR OF GALECTINS” (GALECTO BIOTECH AB, priority 2018, published 2021):
≈ marks a conversion by molar mass, not a printed value.

What was measured:
[1] = biological target: galectins; conditions: cited from earlier work
[2] = aqueous solubility; format: physicochemical; conditions: water
[3] = biological target: Galectin-3 (Homo sapiens, UniProt P17931); experiment: fluorescence anisotropy assay, inhibition of galectin / fluorescein tagged saccharide probe interaction; format: binding; conditions: for Kd: fluorescence anisotropy; for affinity towards the corresponding galectin (in words): pro-drug itself
[4] = mouse PK experiments, plasma exposure of Ref 1 after p.o. administration; format: in vivo; conditions: for exposure in mice PK after per oral administration: mouse, p.o., 20, 40, 80 and 160 mg/kg, plasma exposure of Ref 1

Galectin-3, sequence (P17931 whole entry): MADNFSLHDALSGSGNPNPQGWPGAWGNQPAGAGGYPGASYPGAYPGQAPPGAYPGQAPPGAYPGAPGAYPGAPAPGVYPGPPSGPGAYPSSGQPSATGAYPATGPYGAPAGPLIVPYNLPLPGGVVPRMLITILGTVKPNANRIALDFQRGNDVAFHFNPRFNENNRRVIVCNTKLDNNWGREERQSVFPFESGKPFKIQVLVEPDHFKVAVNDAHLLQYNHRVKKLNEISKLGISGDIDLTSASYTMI

OC[C@H]1O[C@@H](O[C@H]2[C@H](O)[C@@H](O)C(O)O[C@@H]2CO)[C@H](O)[C@@H](O)[C@H]1O (stereo partly shown) [lactose]
Kd ([1]; read-out: Kd, all galectins): 500 to 1000 µM

OC[C@H]1O[C@H](Sc2ccc(Cl)c(Cl)c2)[C@H](O)[C@@H](n2cc(-c3cc(F)c(F)c(F)c3)nn2)[C@H]1O [Ref 2, 3,4-Dichlorophenyl 3-deoxy-3-[4-(3,4,5-trifluorophenyl)-1H-1,2,3-triazol-1-yl]-1-thio-α-D-galactopyranoside, reference compound]
solubility [2]: 37 µg/mL (≈ 0.0708 mM)

O=P(O)(O)OCOC[C@H]1O[C@H](Sc2cncc(Br)c2)[C@H](O)[C@@H](n2cc(-c3cc(F)c(F)c(F)c3)nn2)[C@H]1O [Example 7, 5-Bromopyridin-3-yl 3-deoxy-3-[4-(3,4,5-trifluorophenyl)-1H-1,2,3-triazol-1-yl]-6-O-[(phosphonooxy)methyl]-1-thio-α-D-galactopyranoside]
solubility [2]: > 10000 µg/mL | Kd [3]: 15 µM | affinity towards the corresponding galectin (in words) [3]: low | exposure in mice PK after per oral administration [4]: dose correlated exposure

O=S(=O)(O)O[C@@H]1[C@@H](n2cc(-c3cc(F)c(F)c(F)c3)nn2)[C@@H](O)[C@@H](CO)O[C@@H]1Sc1cncc(Br)c1 [Example 5, 5-Bromopyridin-3-yl 3-Deoxy-3-[4-(3,4,5-trifluorophenyl)-1H-1,2,3-triazol-1-yl]-2-O-sulfo-1-thio-α-D-galactopyranoside]
Kd [3]: 0.004 µM

O=S(=O)(O)OC1C(n2cc(-c3cc(F)c(F)c(F)c3)nn2)[C@@H](O)C(CO)O[C@@H]1Sc1ccc(Cl)c(Cl)c1 (stereo partly drawn) [Example 4, 3,4-Dichlorphenyl 3-Deoxy-3-[4-(3,4,5-trifluorophenyl)-1H-1,2,3-triazol-1-yl]-2-O-sulfo-1-thio-α-D-galactopyranoside]
Kd [3]: 0.014 µM

O=C[C@H](O)[C@@H](O)[C@@H](O)[C@H](O)CO [D-galactose]
affinity, times lower than lactose ([1]; relative to lactose): 50-100 times

O=P(O)(O)OC[C@H]1O[C@H](Sc2cncc(Br)c2)[C@H](O)[C@@H](n2cc(-c3cc(F)c(F)c(F)c3)nn2)[C@H]1O [Example 1, 5-Bromopyridin-3-yl 3-deoxy-3-[4-(3,4,5-trifluorophenyl)-1H-1,2,3-triazol-1-yl]-6-O-phospho-1-thio-α-D-galactopyranoside]
solubility [2]: 8500 µg/mL (≈ 13.9 mM) | Kd [3]: 35 µM | affinity towards the corresponding galectin (in words) [3]: low

OC[C@H]1O[C@H](Sc2cncc(Br)c2)[C@H](O)[C@@H](n2cc(-c3cc(F)c(F)c(F)c3)nn2)[C@H]1O [Ref 1, 5-Bromopyridin-3-yl 3-deoxy-3-[4-(3,4,5-trifluorophenyl)-1H-1,2,3-triazol-1-yl]-1-thio-α-D-galactopyranoside, reference compound]
solubility [2]: 7 µg/mL (≈ 0.0131 mM) | oral availability ([4]; mouse PK, some formulations, dosed above 10 mg/kg): limited oral availability

O=P(O)(O)O[C@@H]1[C@@H](n2cc(-c3cc(F)c(F)c(F)c3)nn2)[C@@H](O)[C@@H](CO)O[C@@H]1Sc1cncc(Br)c1 [Example 2, 5-Bromopyridin-3-yl 3-deoxy-3-[4-(3,4,5-trifluorophenyl)-1H-1,2,3-triazol-1-yl]-2-O-phospho-1-thio-α-D-galactopyranoside]
solubility [2]: 9800 µg/mL (≈ 16 mM) | Kd [3]: 0.006 µM

O=P(O)(O)OCO[C@@H]1[C@@H](n2cc(-c3cc(F)c(F)c(F)c3)nn2)[C@@H](O)[C@@H](CO)O[C@@H]1Sc1cncc(Br)c1 [Example 8, 5-Bromopyridin-3-yl 3-deoxy-3-[4-(3,4,5-trifluorophenyl)-1H-1,2,3-triazol-1-yl]-2-O-[(phosphonooxy)methyl]-1-thio-α-D-galactopyranoside]
solubility [2]: > 10000 µg/mL | Kd [3]: 0.01 µM | exposure in mice PK after per oral administration [4]: dose correlated exposure

O=S(=O)(O)OC[C@H]1O[C@H](Sc2cncc(Br)c2)[C@H](O)[C@@H](n2cc(-c3cc(F)c(F)c(F)c3)nn2)[C@H]1O [Example 6, 5-Bromopyridin-3-yl 3-Deoxy-3-[4-(3,4,5-trifluorophenyl)-1H-1,2,3-triazol-1-yl]-6-O-sulfo-1-thio-α-D-galactopyranoside]
solubility [2]: 9600 µg/mL (≈ 15.7 mM) | Kd [3]: 27 µM

OC[C@H]1O[C@H](Sc2cncc(Br)c2)[C@H](O)[C@@H](n2cc(-c3cc(F)c(Cl)c(F)c3)nn2)[C@H]1O [Ref 3, 5-Bromopyridin-3-yl 3-deoxy-3-[4-(4-chloro-3,5-difluorophenyl)-1H-1,2,3-triazol-1-yl]-1-thio-α-D-galactopyranoside, reference compound]
solubility [2]: 7 µg/mL (≈ 0.0127 mM)

O=P(O)(O)O[C@@H]1[C@@H](n2cc(-c3cc(F)c(F)c(F)c3)nn2)[C@@H](O)[C@@H](CO)O[C@@H]1Sc1ccc(Cl)c(Cl)c1 [Example 3, 3,4-Dichlorophenyl 3-deoxy-3-[4-(3,4,5-trifluorophenyl)-1H-1,2,3-triazol-1-yl]-2-O-phospho-1-thio-α-D-galactopyranoside]
Kd [3]: 0.007 µM

O=P(O)(O)OCO[C@@H]1[C@@H](n2cc(-c3cc(F)c(Cl)c(F)c3)nn2)[C@@H](O)[C@@H](CO)O[C@@H]1Sc1cncc(Br)c1 [Example 9, 5-Bromopyridin-3-yl 3-[4-(4-chloro-3,5-difluorophenyl)-1H-1,2,3-triazol-1-yl]-3-deoxy-2-O-[(phosphonooxy)methyl]-1-thio-α-D-galactopyranoside]
solubility [2]: 800 µg/mL (≈ 1.21 mM) | Kd [3]: 0.007 µM
